Where two headings read alike, the source gives them in different places.

This note sets out measurements from patent publication US9247759B2, “Identification of human T2R receptors that respond to bitter compounds that elicit the bitter taste in compositions, and the use thereof in assays to identify compounds that inhibit (block) bitter taste in compositions and use thereof” (SENOMYX, INC., priority 2007, dated 2016).

The test has as its target hT2R8 (Homo sapiens (Human), UniProt Q9NYW2). The experiment in a line: hT2R8 antagonist high-throughput FLIPR assay, stable cell line with G16g44, agonist andrographolide. In kind it is cell-based. The essentials:
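Antagonist screen: compounds co-applied with agonist andrographolide at 200 μM, a dose giving 70–80% of maximal hT2R8 activation. Fluorescence measured by FLIPR in a stable HEK293 line expressing both hT2R8 and the promiscuous G16g44 protein.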

The mark [1] stands for this setting: read-out: IC50 on hT2R8 bitter receptor.
Where [2] appears, read: table after Example 10-97, read-out: hT2R8 IC50.

Chain of hT2R8 (Q9NYW2 whole entry): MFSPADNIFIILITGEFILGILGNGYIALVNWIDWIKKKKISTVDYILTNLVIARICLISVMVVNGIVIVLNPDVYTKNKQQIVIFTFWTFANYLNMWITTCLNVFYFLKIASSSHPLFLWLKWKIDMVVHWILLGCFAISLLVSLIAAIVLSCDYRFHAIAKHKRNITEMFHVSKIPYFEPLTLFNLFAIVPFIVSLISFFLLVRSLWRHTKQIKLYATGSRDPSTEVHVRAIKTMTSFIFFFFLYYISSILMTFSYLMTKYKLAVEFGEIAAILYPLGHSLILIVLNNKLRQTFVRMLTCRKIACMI

In the case of `Cc1noc(C)c1Cn1cc(N2C(=O)CN(CCc3ccc(O)cc3)C2=O)cn1` [Example 10-86, 3-(1-((3,5-dimethylisoxazol-4-yl)methyl)-1H-pyrazol-4-yl)-1-(4-hydroxyphenethyl)imidazolidine-2,4-dione], the half-inhibitory concentration (IC50) was determined as 0.41 µM under setting [1] and 0.412 µM under setting [2]. For `COc1ccc(CCN2CC(=O)N(c3cnn(Cc4c(C)noc4C)c3)C2=O)cc1OC` [Example 10-87, 1-(3,4-dimethoxyphenethyl)-3-(1-((3,5-dimethylisoxazol-4-yl)methyl)-1H-pyrazol-4-yl)imidazolidine-2,4-dione], in that order: 0.26 µM and 0.137 µM. With `Cc1noc(C)c1Cn1cc(N2CCN(Cc3ccccc3)C2=O)cn1` [Example 10-88, 1-benzyl-3-(1-((3,5-dimethylisoxazol-4-yl)methyl)-1H-pyrazol-4-yl)imidazolidin-2-One], the IC50 is, setting by setting: under setting [1], 0.71 µM; under setting [2], 1.25 µM. Taken in the same sequence, the figures for `COCn1c(=O)n(-c2cnn(Cc3c(C)noc3C)c2)c(=O)n1Cc1ccccc1` [Example 10-89, 1-benzyl-4-(1-((3,5-dimethylisoxazol-4-yl)methyl)-1H-pyrazol-4-yl)-2-(methoxymethyl)-1,2,4-triazolidine-3,5-dione] were 0.02 µM and 0.024 µM. Taken in the same sequence, the figures for `CCn1c(=O)n(-c2cnn(Cc3c(C)noc3C)c2)c(=O)n1Cc1ccccc1` [Example 10-91, 1-benzyl-4-(1-((3,5-dimethylisoxazol-4-yl)methyl)-1H-pyrazol-4-yl)-2-ethyl-1,2,4-triazolidine-3,5-dione] were 0.04 µM and 0.041 µM. For `COCCn1c(=O)n(-c2cnn(Cc3c(C)noc3C)c2)c(=O)n1Cc1ccccc1` [Example 10-92, 1-benzyl-4-(1-((3,5-dimethylisoxazol-4-yl)methyl)-1H-pyrazol-4-yl)-2-(2-methoxyethyl)-1,2,4-triazolidine-3,5-dione], in that order: 0.06 µM and 0.057 µM.

Regarding `CCCn1c(=O)n(-c2cnn(Cc3c(C)noc3C)c2)c(=O)n1Cc1ccccc1` [Example 10-93, 1-benzyl-4-(1-((3,5-dimethylisoxazol-4-yl)methyl)-1H-pyrazol-4-yl)-2-propyl-1,2,4-triazolidine-3,5-dione], the half-inhibitory concentration (IC50) is 0.06 µM under setting [1] and 0.062 µM under setting [2]. For `Cc1noc(C)c1Cn1cc(N2C(=O)CN(CCCc3ccccc3)C2=O)cn1` [Example 10-94, 3-(1-((3,5-dimethylisoxazol-4-yl)methyl)-1H-pyrazol-4-yl)-1-(3-phenylpropyl)imidazolidine-2,4-dione], in that order: 0.26 µM and 0.068 µM.

In the case of `CCCCn1c(=O)n(-c2cnn(Cc3c(C)noc3C)c2)c(=O)n1Cc1ccccc1` [Example 10-95], the IC50 is, setting by setting: under setting [1], 0.41 µM; under setting [2], 0.409 µM. In the case of `Cc1noc(C)c1Cn1cc(N2C(=O)CN(Cc3cccc(CNC(=O)OC(C)(C)C)c3)C2=O)cn1` [Example 10-96, tert-butyl 3-((3-(1-((3,5-dimethylisoxazol-4-yl)methyl)-1H-pyrazol-4-yl)-2,4-dioxoimidazolidin-1-yl)methyl)benzylcarbamate], the IC50 is, setting by setting: under setting [1], 0.9 µM; under setting [2], 0.891 µM. On to `Cc1noc(C)c1Cn1cc(N2C(=O)NC(CO)C2=O)cn1` (centres unmarked) [Example 10-97, 3-(1-((3,5-dimethylisoxazol-4-yl)methyl)-1H-pyrazol-4-yl)-5-(hydroxymethyl)imidazolidine-2,4-dione], for which the IC50 under setting [1] turned out to be 3 µM. The same measure, in the same setting: as for `Cc1noc(C)c1Cn1cc(N2C(=O)N(Cc3cccc(O)c3)C3(CCC3)C2=O)cn1` [Example 12-4, 7-(1-((3,5-dimethylisoxazol-4-yl)methyl)-1H-pyrazol-4-yl)-5-(3-hydroxybenzyl)-5,7-diazaspiro[3.4]octane-6,8-dione], the figure is 0.03 µM.

Regarding `Cc1noc(C)c1Cn1cc(N2C(=O)N(Cc3cccc(O)c3)C3(CCCC3)C2=O)cn1` [Example 12-5, 3-(1-((3,5-dimethylisoxazol-4-yl)methyl)-1H-pyrazol-4-yl)-1-(3-hydroxybenzyl)-1,3-diazaspiro[4.4]nonane-2,4-dione], the half-inhibitory concentration (IC50) under setting [1] was 0.07 µM.

Usually IC50 stands for the concentration needed to halve the response being measured.
